# In publication PMC8252719, “Macrocyclic FKBP51 Ligands Define a Transient Binding Mode with Enhanced Selectivity” (Angewandte Chemie (International Ed. in English), 2021):
# Read-outs that look alike come from different tables or passages of the source.
# Legend:
# FKBP12.6 = FKBP12.6 (Homo sapiens, UniProt P68106); assay: competitive fluorescence polarization assay, FKBP12.6; format: binding; conditions: for Ki: competitive fluorescence polarization assay, >80 μM = highest measurable concentration before compound precipitation, ± = standard error from three independent measurements, read-out: FKBP12.6 K i
# FKBP12.6, sequence (P68106 whole entry): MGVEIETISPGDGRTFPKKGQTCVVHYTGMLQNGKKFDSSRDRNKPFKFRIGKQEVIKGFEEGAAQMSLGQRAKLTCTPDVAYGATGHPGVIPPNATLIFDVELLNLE
# FKBP12 = FKBP12 (Homo sapiens, UniProt P62942); assay: competitive fluorescence polarization assay, FKBP12; format: binding; conditions: for Ki: competitive fluorescence polarization assay, >80 μM = highest measurable concentration before compound precipitation, ± = standard error from three independent measurements, read-out: FKBP12 K i
# FKBP12, sequence (P62942 whole entry): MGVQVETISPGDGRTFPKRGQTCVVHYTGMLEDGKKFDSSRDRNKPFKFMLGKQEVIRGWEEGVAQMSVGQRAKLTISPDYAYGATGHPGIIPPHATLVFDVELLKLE
# FKBP51FK1 [1] = biological target: T1, FKBP51FK1 (Homo sapiens, UniProt Q13451); assay: competitive fluorescence polarization assay, FKBP51FK1; format: binding; conditions: ± = standard error from three independent measurements [b] or error from two independent measurements [d], read-out: FKBP51FK1 K i
# T1 sequence (Q13451 42-130 limits assumed): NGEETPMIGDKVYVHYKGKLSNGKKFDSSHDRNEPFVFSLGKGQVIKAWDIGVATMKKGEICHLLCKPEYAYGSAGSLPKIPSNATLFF
# Procedure: Table S1. Ki values were determined by a competitive fluoresc ence polarization assay.
# 4.1 Binding curves of 13a, c and d […]
# [2] = system: IKKα phosphorylation in SIM-A9 cells; assay: IKKα inhibition in SIM-A9 cells (Western blot); format: cell-based, murine; conditions: for dose-dependence of inhibition of IKKα phosphorylation / inhibition of IKKα phosphorylation (in words): murine microglia SIM-A9 cells, 16 h treatment, Western blot; for inhibition of IKKα phosphorylation (in words): three (macrocycles) or six (SAFit) independent cellular assays; for concentration at which apparent maximal inhibition of IKKα phosphorylation was already reached: SIM-A9 cells, lowest tested concentration
# Procedure: We next explored if the macrocyclic ligands could interfere with the cellular functions of FKBP51. We therefore treated SIM‐A9 cells, which were recently discovered as a SAFit‐sensitive cellular model for stress‐mediated secretory autophagy. ^[24] […] (Figure 2 F and S6C). […]
# 5.2 IKKα inhibition in SIM-A9 cells
# Cell culture and treatments
# Murine microglia SIM-A9 cells were cultured at 37 °C, 5% CO2 in Dulbecco's Modified Eagle Medium (DMEM) high glucose with GlutaMAX (Thermo Fisher Scientific, 10566016), supplemented with 1 mM sodium pyruvate (Thermo Fisher Scientific, 11360-070), 10% fetal bovine serum (PAN Biotech, P30-8500), and 1% antibiotic-antimycotic (Thermo Fisher Scientific, 15240-062).
# For the preparation of whole-cell lysates, confluent SIM-A9 cell cultures treated with the indicated compounds for 16 h in the above mentioned growth medium, were washed two times with ice-cold DPBS (Thermo Fisher Scientific, 14190-144) and lysed in an appropriate volume of RIPA buffer (Thermo Fisher Scientific, 89901), freshly supplemented with 1x cOmplete™ EDTA-free protease inhibitor cocktail (Roche, 4693132001) and 1x PhosSTOP™ phosphatase inhibitor cocktail (Roche, 4906837001) for 20 min on ice.
# Subsequently, samples were centrifuged for 10 min at 4°C at 13000 rpm. The resulting supernatants were transferred to new 1.5 ml reaction tubes and prepared for separation with an SDS-PAGE system and analyzed by immunoblotting.
# SDS-PAGE and immunoblotting
# Separation of proteins was performed with the Criterion™ Vertical Electrophoresis Cell System (Bio-Rad, 1656001) on 4–20% Criterion™ TGX™ Precast Midi Protein Gels (Bio-Rad, 5671095). Immunoblotting was performed with the Trans-Blot Turbo Transfer System (Bio-Rad, 1704150) on 0.2 µm PVDF Trans-Blot Turbo Transfer Membranes (Bio-Rad, 1704157). For immunodetection, membranes were placed in TBS, supplemented with 0.05% Tween (Sigma-Aldrich, P9416) and 5% non-fat milk (Carl Roth, T145.1) for 1 h at RT and then incubated with the primary antibody diluted in TBS-T overnight at 4°C. Following primary antibodies were used:
# Phospho-IKKα S176/phospho-IKKβ S177 (1:1000, Cell Signaling Technology, 2078), IKKα (1:1000, Cell Signaling Technology, 1682) and GAPDH (1:1000, Cell Signaling Techology, 5174).
# Then, immunoblots were washed and probed with horseradish peroxidase- conjugated secondary antibody (1:10000, Cell Signaling Technology, 7074) for 1 h at RT. Immunoreactive protein bands were visualized using Clarity Western ECL Substrate (Bio-Rad, 1705061) or Clarity Max Western ECL Substrate (Bio-Rad, 1705062). Determination of the band intensities was performed with […]
# FKBP51FK1 [3] = biological target: T1, FKBP51FK1; assay: isothermal titration calorimetry (ITC); format: binding
# Procedure: 1. ITC of compounds 13a and 13d
# Figure S1. A) Binding of compound 13a to FKBP51FK1 determined by isothermal titration calorimetry at 25 °C. A 20 µM solution FKBP51FK1 formulated in 20 mM
# HEPES pH 8.0, 20 mM NaCl, 5% glycerol and 2% DMSO was placed in the sample cell of a PEAK-ITC instrument. The syringe was filled with a 200 µM solution of
# 13a formulated in the same buffer. After equilibration the compound was titrated into the sample cell by 12 injection s of 3 µl each. The obtained data was analyzed
# Binding of compound 13d to FKBP51FK1 determined by isothermal titration calorimetry at 25 °C. A 13 µM solution FKBP51FK1 formulated in 20 mM HEPES pH
# 8.0, 20 mM NaCl, 5% glycerol and 2% DMSO was placed in the sample cell of a PEAK -ITC instrument. The syringe was filled with a 10 0 µM solution of 13d
# formulated in the same buffer. After equilibration the compound was titrated into the sample cell by 12 injections of 3 µl each. The obtained data was analyzed using […]
# [4] = fluorescence polarization assay
Ki (FKBP51FK1 [1]) [µM],Ki (FKBP12.6) [µM],Ki (FKBP12) [µM],SMILES,inhibition of IKKα phosphorylation (in words) [2],also measured
1.2,–,–,COc1ccc(CCC2OC(=O)C3CCCCN3C(=O)C(C3CCCCC3)CC(O)C(O)COCCOc3cccc2c3)cc1OC (mixture of isomers) [9 g],–,binding to FKBP12.6 (in words) (FKBP12.6; [4]): did not bind; binding to FKBP12 (in words) (FKBP12; [4]): did not bind
7.4,> 80,> 80,COc1ccc(CC[C@H]2OC(=O)[C@@H]3CCCCN3C(=O)[C@@H](C3CCCCC3)NC(=O)CCNC(=O)COc3cccc2c3)cc1OC [13 l],–,–
–,> 80,> 80,"COc1ccc(CC[C@H]2OC(=O)[C@@H]3CCCCN3C(=O)[C@@H](C3CCCCC3)NC(=O)[C@H](C)NC(=O)COc3cccc2c3)cc1OC [13 j, (2R,5S,12R,15S)-12-cyclohexyl-2-[2-(3,4-dimethoxyphenyl)ethyl]-15-methyl-3,19-dioxa-10,13,16-triazatricyclo[18.3.1.0⁵,¹⁰]tetracosa-1(24),20,22-triene-4,11,14,17-tetrone]",–,–
3.1,> 80,> 80,COc1ccc(CC[C@H]2OC(=O)[C@@H]3CCCCN3C(=O)[C@@H](C3CCCCC3)NC(=O)CN(C)C(=O)COc3cccc2c3)cc1OC [13 g],–,–
–,> 80,> 80,"COc1ccc(CC[C@H]2OC(=O)[C@@H]3CCCCN3C(=O)[C@@H](C3CCCCC3)NC(=O)[C@H]3CCCN3C(=O)COc3cccc2c3)cc1OC [13 i, (9R,12R,19S,22R)-12-cyclohexyl-22-[2-(3,4-dimethoxyphenyl)ethyl]-2,21-dioxa-5,11,14-triazatetracyclo[21.3.1.0⁵,⁹.0¹⁴,¹⁹]heptacosa-1(26),23(27),24-triene-4,10,13,20-tetrone]",inhibited,dose-dependence of inhibition of IKKα phosphorylation [2]: clear dose‐dependence
1.3,> 80,> 80,COc1ccc(CC[C@H]2OC(=O)[C@@H]3CCCCN3C(=O)[C@@H](C3CCCCC3)NC(=O)C3(CCCC3)NC(=O)COc3cccc2c3)cc1OC [13 f],–,–
–,> 80,> 80,"COc1ccc(CC[C@H]2OC(=O)[C@@H]3CCCCN3C(=O)[C@@H](C3CCCCC3)NC(=O)[C@@H](C)NC(=O)COc3cccc2c3)cc1OC [13 b, (2R,5S,12R,15R)-12-cyclohexyl-2-[2-(3,4-dimethoxyphenyl)ethyl]-15-methyl-3,19-dioxa-10,13,16-triazatricyclo[18.3.1.0⁵,¹⁰]tetracosa-1(24),20,22-triene-4,11,14,17-tetrone]",–,–
–,> 80,> 80,COc1ccc(CC[C@H]2OC(=O)[C@@H]3CCCCN3C(=O)[C@@H](C3CCCCC3)NC(=O)C(C)(C)NC(=O)COc3cccc2c3)cc1OC [13 c],inhibited,concentration at which apparent maximal inhibition of IKKα phosphorylation was already reached [2]: ≤ 1 µM; Ki (FKBP51FK1 [1]; SEM): 0.29 ± 0.05 µM
–,> 80,> 80,"COc1ccc(CC[C@H]2OC(=O)[C@@H]3CCCCN3C(=O)[C@@H](C3CCCCC3)NC(=O)[C@@H]3CCCN3C(=O)COc3cccc2c3)cc1OC [13 k, (9S,12R,19S,22R)-12-cyclohexyl-22-[2-(3,4-dimethoxyphenyl)ethyl]-2,21-dioxa-5,11,14-triazatetracyclo[21.3.1.0⁵,⁹.0¹⁴,¹⁹]heptacosa-1(26),23(27),24-triene-4,10,13,20-tetrone]",–,–
0.37,> 80,> 80,COc1ccc(CC[C@H]2OC(=O)[C@@H]3CCCCN3C(=O)[C@@H](C3CCCCC3)NC(=O)C(C)(C)N(C)C(=O)COc3cccc2c3)cc1OC [13 h],inhibited,concentration at which apparent maximal inhibition of IKKα phosphorylation was already reached [2]: ≤ 1 µM
–,–,–,"COc1ccc(CC[C@@H](OC(=O)[C@@H]2CCCCN2C(=O)[C@H](c2cc(OC)c(OC)c(OC)c2)C2CCCCC2)c2cccc(OCC(=O)O)c2)cc1OC [SAFit1, reference compound]",inhibited,Ki (FKBP12.6; SEM): 0.019 ± 0.002 µM; Ki (FKBP12; SEM): 0.163 ± 0.009 µM; dose-dependence of inhibition of IKKα phosphorylation [2]: clear dose‐dependence; Ki (FKBP51FK1 [1]; SEM): 0.004 ± 0.001 µM
–,–,–,"COc1ccc(CC[C@@H](OC(=O)[C@@H]2CCCCN2C(=O)[C@H](c2cc(OC)c(OC)c(OC)c2)C2CCCCC2)c2cccc(OCCN3CCOCC3)c2)cc1OC [SAFit2, reference compound]",inhibited,dose-dependence of inhibition of IKKα phosphorylation [2]: clear dose‐dependence
0.4,> 80,> 80,COc1ccc(CC[C@H]2OC(=O)[C@@H]3CCCCN3C(=O)[C@@H](C3CCCCC3)NC(=O)C3(CCC3)NC(=O)COc3cccc2c3)cc1OC [13 e],inhibited,dose-dependence of inhibition of IKKα phosphorylation [2]: clear dose‐dependence
–,> 80,> 80,COc1ccc(CC[C@H]2OC(=O)[C@@H]3CCCCN3C(=O)[C@@H](C3CCCCC3)NC(=O)CNC(=O)COc3cccc2c3)cc1OC [13 a],–,"Kd (FKBP51FK1 [3]; 25 °C, 20 mM HEPES pH 8.0, 20 mM NaCl, 5% glycerol, 2% DMSO, one-site binding model, mean ± SD from 3 independent experiments, SD, read-out: Kd-value for FKBP51FK1 by ITC): 3.6 ± 0.9 µM; Kd (FKBP51FK1 [3]; isothermal calorimetry, enthalpy-driven, read-out: K d for FKBP51 by ITC): 3.6 µM; Ki (FKBP51FK1 [1]; SEM): 2.3 ± 0.05 µM"
